# From paper PMC5218480 (PLoS ONE, 2017)
# System: MV-4-11 cells
# Experiment: Gene expression microarray analysis (Affymetrix PrimeView) and GSEA
# Format: cell-based, human
# Parameters: RFU PODN (11730768_x_at) / Fold change /veh PODN (11730768_x_at) / RFU LINC00158 (11744669_a_at) / Fold change /veh LINC00158 (11744669_a_at) / RFU DUSP10 (11751237_a_at) / Fold change /veh DUSP10 (11751237_a_at) / RFU ID3 (11757404_x_at) / Fold change /veh ID3 (11757404_x_at) / RFU PLEKHG5 (11737974_s_at) / Fold change /veh PLEKHG5 (11737974_s_at) / RFU LRRC4B (11730491_at) / Fold change /veh LRRC4B (11730491_at) / RFU GIMAP4 (11747438_a_at) / Fold change /veh GIMAP4 (11747438_a_at) / RFU KRT8 (11758183_x_at) / Fold change /veh KRT8 (11758183_x_at) / RFU CNN1 (11734310_a_at) / Fold change /veh CNN1 (11734310_a_at) / RFU VPS37D (11726825_at) / Fold change /veh VPS37D (11726825_at) / RFU C10orf10 (11716522_x_at) / Fold change /veh C10orf10 (11716522_x_at) / RFU KIR2DL2 /// KIR2DL4 /// KIR2DL5A /// KIR2DL5B /// KIR2DS1 /// KIR2DS2 /// KIR2DS3 /// KIR2DS4 /// KIR3DL3 /// KIR3DL3 /// KIR3DS1 (11738374_at) / Fold change /veh KIR2DL2 /// KIR2DL4 /// KIR2DL5A /// KIR2DL5B /// KIR2DS1 /// KIR2DS2 /// KIR2DS3 /// KIR2DS4 /// KIR3DL3 /// KIR3DL3 /// KIR3DS1 (11738374_at) / RFU C1QL1 (11718748_at) / Fold change /veh C1QL1 (11718748_at) / RFU TMPRSS4 (11747572_a_at) / Fold change /veh TMPRSS4 (11747572_a_at) / RFU HAMP (11756126_x_at) / Fold change /veh HAMP (11756126_x_at) / RFU RNFT2 (11725882_a_at) / Fold change /veh RNFT2 (11725882_a_at) / RFU NR4A2 (11747474_a_at) / Fold change /veh NR4A2 (11747474_a_at) / RFU ABCC12 (11746883_a_at) / Fold change /veh ABCC12 (11746883_a_at) / RFU TMEM136 (11760407_x_at) / Fold change /veh TMEM136 (11760407_x_at) / RFU CLDN22 /// WWC2 (11732394_at) / Fold change /veh CLDN22 /// WWC2 (11732394_at) / RFU HLA-DPB1 (11760878_x_at) / Fold change /veh HLA-DPB1 (11760878_x_at) / RFU SPINT1 (11716480_a_at) / Fold change /veh SPINT1 (11716480_a_at) / RFU GAP43 (11754022_s_at) / Fold change /veh GAP43 (11754022_s_at) / RFU A4GNT (11735810_at) / Fold change /veh A4GNT (11735810_at) / RFU PRB3 (11715151_x_at) / Fold change /veh PRB3 (11715151_x_at) / RFU TUBB4B (11761932_at) / Fold change /veh TUBB4B (11761932_at) / RFU CAPN14 (11732068_a_at) / Fold change /veh CAPN14 (11732068_a_at) / RFU TMCC2 (11721928_a_at) / Fold change /veh TMCC2 (11721928_a_at) / RFU IRGQ (11745062_a_at) / Fold change /veh IRGQ (11745062_a_at) / RFU FAM174B (11720279_a_at) / Fold change /veh FAM174B (11720279_a_at) / RFU TMPRSS4 (11748680_a_at) / Fold change /veh TMPRSS4 (11748680_a_at) / RFU FAM212B (11763350_a_at) / Fold change /veh FAM212B (11763350_a_at) / RFU PLEKHG5 (11743358_a_at) / Fold change /veh PLEKHG5 (11743358_a_at) / RFU ZSCAN30 (11745921_a_at) / Fold change /veh ZSCAN30 (11745921_a_at) / RFU CMKLR1 (11741424_a_at) / Fold change /veh CMKLR1 (11741424_a_at) / RFU LOC101060620 /// MAPK8IP1 (11723275_at) / Fold change /veh LOC101060620 /// MAPK8IP1 (11723275_at) / RFU SPTSSB (11747773_x_at) / Fold change /veh SPTSSB (11747773_x_at) / RFU PRSS12 (11739890_at) / Fold change /veh PRSS12 (11739890_at) / RFU BIN1 (11741810_x_at) / Fold change /veh BIN1 (11741810_x_at) / RFU WNT11 (11732464_a_at) / Fold change /veh WNT11 (11732464_a_at) / RFU C10orf10 (11716521_a_at) / Fold change /veh C10orf10 (11716521_a_at) / RFU C5orf56 (11738089_at) / Fold change /veh C5orf56 (11738089_at) / RFU CYB561 (11721691_x_at) / Fold change /veh CYB561 (11721691_x_at) / RFU ANKRD19P (11752326_a_at) / Fold change /veh ANKRD19P (11752326_a_at) / RFU OR2T12 /// OR2T33 /// OR2T8 (11738714_s_at) / Fold change /veh OR2T12 /// OR2T33 /// OR2T8 (11738714_s_at) / RFU VCAN (11748164_a_at) / Fold change /veh VCAN (11748164_a_at) / RFU JSRP1 (11732532_at) / Fold change /veh JSRP1 (11732532_at) / RFU KRTAP10-11 (11738290_x_at) / Fold change /veh KRTAP10-11 (11738290_x_at) / RFU MYO3A (11730013_a_at) / Fold change /veh MYO3A (11730013_a_at) / RFU EBF3 (11725865_a_at) / Fold change /veh EBF3 (11725865_a_at) / RFU CAMK2N1 (11719241_x_at) / Fold change /veh CAMK2N1 (11719241_x_at) / RFU C5orf56 (11738088_a_at) / Fold change /veh C5orf56 (11738088_a_at) / RFU OLFML3 (11715873_a_at) / Fold change /veh OLFML3 (11715873_a_at) / RFU LOC100653217 /// NTM (11731650_a_at) / Fold change /veh LOC100653217 /// NTM (11731650_a_at) / RFU MAPK11 (11762145_a_at) / Fold change /veh MAPK11 (11762145_a_at) / RFU FIZ1 (11724087_x_at) / Fold change /veh FIZ1 (11724087_x_at) / RFU OASL (11726364_x_at) / Fold change /veh OASL (11726364_x_at) / RFU SOX15 (11748057_x_at) / Fold change /veh SOX15 (11748057_x_at) / RFU CD79A (11719716_a_at) / Fold change /veh CD79A (11719716_a_at) / RFU HIST1H1D (11736915_at) / Fold change /veh HIST1H1D (11736915_at) / RFU CASKIN2 (11723855_a_at) / Fold change /veh CASKIN2 (11723855_a_at) / RFU LOC730098 (11760151_x_at) / Fold change /veh LOC730098 (11760151_x_at) / RFU OR4N2 (11742367_at) / Fold change /veh OR4N2 (11742367_at) / RFU PRRT2 (11749266_a_at) / Fold change /veh PRRT2 (11749266_a_at) / RFU SNX32 (11753110_a_at) / Fold change /veh SNX32 (11753110_a_at) / RFU CDHR5 (11726645_a_at) / Fold change /veh CDHR5 (11726645_a_at) / RFU RCAN1 (11760418_a_at) / Fold change /veh RCAN1 (11760418_a_at) / RFU FAM167A (11723789_a_at) / Fold change /veh FAM167A (11723789_a_at) / RFU FAM26E (11764081_at) / Fold change /veh FAM26E (11764081_at) / RFU ISYNA1 (11749810_s_at) / Fold change /veh ISYNA1 (11749810_s_at) / RFU ACY1 (11761880_at) / Fold change /veh ACY1 (11761880_at) / RFU 11764098_at / Fold change /veh 11764098_at / RFU SAMD14 (11745864_x_at) / Fold change /veh SAMD14 (11745864_x_at) / RFU NPB (11741838_a_at) / Fold change /veh NPB (11741838_a_at) / RFU TMPRSS6 (11731388_a_at) / Fold change /veh TMPRSS6 (11731388_a_at) / RFU KRTAP10-2 (11738614_at) / Fold change /veh KRTAP10-2 (11738614_at) / RFU ARHGAP8 /// PRR5-ARHGAP8 (11727945_x_at) / Fold change /veh ARHGAP8 /// PRR5-ARHGAP8 (11727945_x_at) / RFU KRTAP5-7 /// NADSYN1 (11734609_at) / Fold change /veh KRTAP5-7 /// NADSYN1 (11734609_at) / RFU RASL12 (11751679_a_at) / Fold change /veh RASL12 (11751679_a_at) / RFU CDKN2B (11736163_a_at) / Fold change /veh CDKN2B (11736163_a_at) / RFU PRF1 (11729649_at) / Fold change /veh PRF1 (11729649_at) / RFU, ZNF638 /// ZNF638-IT1 / Fold change vs veh, ZNF638 /// ZNF638-IT1 / RFU, PANK3 / Fold change vs veh, PANK3 / RFU, SH3YL1 / Fold change vs veh, SH3YL1 / RFU, ZEB2 / Fold change vs veh, ZEB2 / RFU, NRIP1 / Fold change vs veh, NRIP1 / RFU, PTTG1IP / Fold change vs veh, PTTG1IP / RFU, CAPN2 / Fold change vs veh, CAPN2 / RFU, MED14 / Fold change vs veh, MED14 / RFU, SNORA58 / Fold change vs veh, SNORA58 / RFU, C1orf63 / Fold change vs veh, C1orf63 / RFU, LRRFIP1 / Fold change vs veh, LRRFIP1 / RFU, NDUFAF7 / Fold change vs veh, NDUFAF7 / RFU, SLC12A2 / Fold change vs veh, SLC12A2 / RFU, IBTK / Fold change vs veh, IBTK / RFU, ESF1 / Fold change vs veh, ESF1 / Fold change vs veh, TMEM50B / RFU, TAOK1 / Fold change vs veh, TAOK1 / RFU, ACBD3 / Fold change vs veh, ACBD3 / RFU, TMA16 / Fold change vs veh, TMA16 / RFU, RWDD3 / Fold change vs veh, RWDD3 / RFU, BCAT1 / Fold change vs veh, BCAT1 / RFU, EDEM3 / Fold change vs veh, EDEM3 / RFU, TMEM33 / Fold change vs veh, TMEM33 / RFU, WDR75 / Fold change vs veh, WDR75 / RFU, AHCTF1 / Fold change vs veh, AHCTF1 / RFU, TFRC / Fold change vs veh, TFRC / RFU, ZDHHC17 / Fold change vs veh, ZDHHC17 / RFU, NOM1 / Fold change vs veh, NOM1 / RFU, ARL8B / Fold change vs veh, ARL8B / RFU, ZBTB11 / Fold change vs veh, ZBTB11 / RFU, TAMM41 / Fold change vs veh, TAMM41 / RFU, KIAA1704 /// LOC100996395 / Fold change vs veh, KIAA1704 /// LOC100996395 / RFU, ING1 / Fold change vs veh, ING1 / RFU, TRMT61B / Fold change vs veh, TRMT61B / RFU, FUBP3 / Fold change vs veh, FUBP3 / RFU, TP53 / Fold change vs veh, TP53 / RFU, TNKS2 / Fold change vs veh, TNKS2 / RFU, ZFP14 / Fold change vs veh, ZFP14 / RFU, ACTR2 / Fold change vs veh, ACTR2 / RFU, PPP3R1 / Fold change vs veh, PPP3R1 / RFU, PIK3R1 / Fold change vs veh, PIK3R1 / RFU, HNRNPA1 / Fold change vs veh, HNRNPA1 / RFU, RNF170 / Fold change vs veh, RNF170 / RFU, ZNF28 / Fold change vs veh, ZNF28 / RFU, RNGTT / Fold change vs veh, RNGTT / RFU, OGT / Fold change vs veh, OGT / RFU, BRD1 / Fold change vs veh, BRD1 / RFU, MARS / Fold change vs veh, MARS / RFU, ZNF655 / Fold change vs veh, ZNF655 / RFU, FAHD1 / Fold change vs veh, FAHD1 / RFU, BDP1 / Fold change vs veh, BDP1 / RFU, LRRCC1 / Fold change vs veh, LRRCC1 / RFU, ARID1A / Fold change vs veh, ARID1A / RFU, ZNF146 / Fold change vs veh, ZNF146 / RFU, ZNF330 / Fold change vs veh, ZNF330 / RFU, GPN3 / Fold change vs veh, GPN3 / RFU, C9orf123 / Fold change vs veh, C9orf123 / RFU, N4BP2L2 / Fold change vs veh, N4BP2L2 / RFU, ARFIP1 / Fold change vs veh, ARFIP1 / RFU, FAM179B / Fold change vs veh, FAM179B / RFU, BCL10 / Fold change vs veh, BCL10 / RFU, UHRF1BP1L / Fold change vs veh, UHRF1BP1L / RFU, BET1 / Fold change vs veh, BET1 / RFU, CNOT2 / Fold change vs veh, CNOT2 / RFU, ZNF268 / Fold change vs veh, ZNF268 / Fold change vs veh, ZNF507 / RFU, DGCR2 / Fold change vs veh, DGCR2 / RFU, WDSUB1 / Fold change vs veh, WDSUB1 / Fold change vs veh, HSP90B1 /// MIR3652 / RFU, ADSS / Fold change vs veh, ADSS / RFU, GK / Fold change vs veh, GK / RFU, ZNF148 / Fold change vs veh, ZNF148 / RFU, TAF9 / Fold change vs veh, TAF9 / RFU, SLC1A5 / Fold change vs veh, SLC1A5 / RFU, SLMO2 / Fold change vs veh, SLMO2 / RFU, ABCC4 / Fold change vs veh, ABCC4 / RFU, LOC101060439 /// RAP1B / Fold change vs veh, LOC101060439 /// RAP1B / RFU, RFX7 / Fold change vs veh, RFX7 / RFU, GTPBP10 / Fold change vs veh, GTPBP10 / RFU, CNEP1R1 / Fold change vs veh, CNEP1R1 / RFU, BIVM-ERCC5 /// ERCC5 / Fold change vs veh, BIVM-ERCC5 /// ERCC5 / RFU, ILF3 / Fold change vs veh, ILF3 / RFU 11762660_at / Fold change /veh 11762660_at / RFU VCAN (11757783_s_at) / Fold change /veh VCAN (11757783_s_at) / RFU DDX43 (11728927_at) / Fold change /veh DDX43 (11728927_at) / RFU KRT8 (11758188_x_at) / Fold change /veh KRT8 (11758188_x_at) / RFU NKD1 (11759106_at) / Fold change /veh NKD1 (11759106_at) / RFU SRD5A1 (11742802_a_at) / Fold change /veh SRD5A1 (11742802_a_at) / RFU TPSAB1 /// TPSB2 (11721975_s_at) / Fold change /veh TPSAB1 /// TPSB2 (11721975_s_at) / RFU GSTM3 (11746129_a_at) / Fold change /veh GSTM3 (11746129_a_at) / RFU IL23R (11737362_x_at) / Fold change /veh IL23R (11737362_x_at) / RFU TMEM51 (11727254_a_at) / Fold change /veh TMEM51 (11727254_a_at) / RFU PIWIL2 (11732686_x_at) / Fold change /veh PIWIL2 (11732686_x_at) / RFU ORM1 (11744905_x_at) / Fold change /veh ORM1 (11744905_x_at) / RFU CCDC152 (11743942_at) / Fold change /veh CCDC152 (11743942_at) / RFU ECM1 (11717891_a_at) / Fold change /veh ECM1 (11717891_a_at) / RFU IL23R (11748794_a_at) / Fold change /veh IL23R (11748794_a_at) / RFU TNFAIP8L3 (11732012_x_at) / Fold change /veh TNFAIP8L3 (11732012_x_at) / RFU MBOAT4 (11741988_at) / Fold change /veh MBOAT4 (11741988_at) / RFU 11764193_at / Fold change /veh 11764193_at / RFU TMEM53 (11763286_at) / Fold change /veh TMEM53 (11763286_at) / RFU MAGEB2 (11727129_at) / Fold change /veh MAGEB2 (11727129_at) / RFU TMEM200A (11744735_a_at) / Fold change /veh TMEM200A (11744735_a_at) / RFU CCDC152 (11751479_a_at) / Fold change /veh CCDC152 (11751479_a_at) / RFU FAM211A (11726209_a_at) / Fold change /veh FAM211A (11726209_a_at) / RFU RGS16 (11746705_a_at) / Fold change /veh RGS16 (11746705_a_at) / RFU VCAN (11755009_s_at) / Fold change /veh VCAN (11755009_s_at) / RFU RHOB (11743442_s_at) / Fold change /veh RHOB (11743442_s_at) / RFU RGS16 (11720943_a_at) / Fold change /veh RGS16 (11720943_a_at) / RFU RGS16 (11720944_at) / Fold change /veh RGS16 (11720944_at) / RFU, VPS4B / Fold change vs veh, VPS4B / RFU, CREB1 / Fold change vs veh, CREB1 / RFU, DNAJC13 / Fold change vs veh, DNAJC13 / RFU, GNAQ / Fold change vs veh, GNAQ / RFU, CDK5R1 / Fold change vs veh, CDK5R1 / RFU, ZRANB3 / Fold change vs veh, ZRANB3 / RFU, CUL4A / Fold change vs veh, CUL4A / RFU, CCNY / Fold change vs veh, CCNY / RFU, UFL1 / Fold change vs veh, UFL1 / RFU, COG3 / Fold change vs veh, COG3 / RFU, DIAPH2 / Fold change vs veh, DIAPH2 / RFU, SKA2 / Fold change vs veh, SKA2 / RFU, AFF3 / Fold change vs veh, AFF3 / RFU, LMF1 / Fold change vs veh, LMF1 / RFU, IPO11 / Fold change vs veh, IPO11 / RFU, DFFB / Fold change vs veh, DFFB / RFU, FOXP1 / Fold change vs veh, FOXP1 / RFU, CARD8 / Fold change vs veh, CARD8 / RFU, STRN3 / Fold change vs veh, STRN3 / RFU, ADK / Fold change vs veh, ADK / RFU, RASSF2 / Fold change vs veh, RASSF2 / RFU, WIPF1 / Fold change vs veh, WIPF1 / RFU, LARP1B / Fold change vs veh, LARP1B / RFU, RASA1 / Fold change vs veh, RASA1 / RFU, RB1 / Fold change vs veh, RB1 / RFU, PPFIA1 / Fold change vs veh, PPFIA1 / RFU, MAT2A / Fold change vs veh, MAT2A / RFU, CCT5 / Fold change vs veh, CCT5 / RFU, WDR92 / Fold change vs veh, WDR92 / RFU, CUX1 / Fold change vs veh, CUX1 / RFU, TTC7A / Fold change vs veh, TTC7A / RFU, TMEM135 / Fold change vs veh, TMEM135 / RFU, DEPTOR / Fold change vs veh, DEPTOR / RFU, CPM / Fold change vs veh, CPM / RFU, DNAJB6 / Fold change vs veh, DNAJB6 / RFU, CACNA2D3 / Fold change vs veh, CACNA2D3 / RFU, DTX4 / Fold change vs veh, DTX4 / RFU, TFCP2 / Fold change vs veh, TFCP2 / RFU, GMCL1 /// GMCL1P1 / Fold change vs veh, GMCL1 /// GMCL1P1 / RFU, AEBP2 / Fold change vs veh, AEBP2 / RFU, SNHG1 /// SNORD22 /// SNORD25 /// SNORD26 /// SNORD27 /// SNORD28 /// SNORD29 /// SNORD31 / Fold change vs veh, SNHG1 /// SNORD22 /// SNORD25 /// SNORD26 /// SNORD27 /// SNORD28 /// SNORD29 /// SNORD31 / Fold change (Aza/veh), C12orf56 (ProbeSet 11735607_a_at) / Fold change (ACY-1035/veh), C12orf56 (ProbeSet 11735607_a_at) / Fold change (Aza/veh), FGFR1OP (ProbeSet 11751329_s_at) / Fold change (ACY-1035/veh), FGFR1OP (ProbeSet 11751329_s_at) / Fold change (Aza/veh), VPS36 (ProbeSet 11739960_a_at) / Fold change (ACY-1035/veh), VPS36 (ProbeSet 11739960_a_at) / RFU SYPL1 (11715823_x_at) / Fold change /veh SYPL1 (11715823_x_at) / RFU IGFBP7 (11715501_s_at) / Fold change /veh IGFBP7 (11715501_s_at) / RFU REEP3 (11722064_at) / Fold change /veh REEP3 (11722064_at) / RFU IGLL1 (11728026_x_at) / Fold change /veh IGLL1 (11728026_x_at): dose or concentration left out as unconfirmed
# Conditions: ProbeSet 11739696_s_at; LIST D
smiles,measurement,value
Nc1ccc(-c2cccs2)cc1NC(=O)c1ccc2c(c1)cc(C1CC1)n2CCN1CCOCC1 [ACY-1035],"RFU, AFF3",669.34 RFU
